Experiments:
in vitro = settings: human, undifferentiated SH-SY5Y cells
hMAO-B = target: T1, hMAO-B (Homo sapiens, UniProt P27338); test: in vitro inhibition of hMAO-B, kynuramine fluorescence assay; assay type: biochemical
T1 construct: purchased Merck (Prague, Czech Republic)
T1 sequence (P27338 1-520): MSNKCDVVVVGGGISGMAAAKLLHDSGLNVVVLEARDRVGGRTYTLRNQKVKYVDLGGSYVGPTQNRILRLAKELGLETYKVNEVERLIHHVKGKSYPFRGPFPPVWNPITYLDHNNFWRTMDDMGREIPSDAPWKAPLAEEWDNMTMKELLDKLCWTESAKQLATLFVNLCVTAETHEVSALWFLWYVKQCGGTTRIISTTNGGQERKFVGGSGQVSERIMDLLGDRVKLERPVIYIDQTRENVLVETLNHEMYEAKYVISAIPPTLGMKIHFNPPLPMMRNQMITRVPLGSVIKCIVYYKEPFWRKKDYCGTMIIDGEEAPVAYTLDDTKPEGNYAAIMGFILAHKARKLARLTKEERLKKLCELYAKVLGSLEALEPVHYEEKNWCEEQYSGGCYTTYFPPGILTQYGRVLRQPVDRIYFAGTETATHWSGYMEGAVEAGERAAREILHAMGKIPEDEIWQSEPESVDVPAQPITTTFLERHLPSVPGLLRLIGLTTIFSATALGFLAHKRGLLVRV
Method: The hMAO-A and hMAO-B enzymes were purchased from Merck (Prague, Czech Republic). […] The mixture was pre-incubated at 37 °C for 15 min and subsequently substrate kynuramine was added to the final concentration of 100 µM. The final volume of reaction mixture was 0.1 mL. The whole reaction mixture was incubated at 37 °C for 30 min. The reaction was stopped by the addition of 20 µL 4M NaOH.

[1] = test system: differentiated SH-SY5Y cells; test: MTT viability of differentiated SH-SY5Y; assay type: cell-based, human; settings: concentration equal to IC50 from undifferentiated model, 24 h
Method: Then, the differentiated SH-SY5Y cells were treated with concentrations corresponding to the IC50 values obtained from the cytotoxicity measurement using undifferentiated SH-SY5Y cells. Cells were exposed to a tested compound for 24 h. Then, the medium was replaced by a medium containing 10 μM of MTT and cells were allowed to produce formazan for another, approximately 3 h under surveillance. Thereafter, the medium was aspirated and purple crystals of MTT formazan were dissolved in 100 μL DMSO under shaking. Cell viability was assessed spectrophotometrically by the amount of formazan produced. Absorbance was measured at 570 nm with 650 nm reference wavelength on Spark (Tecan Group Ltd., Männedorf, Switzerland). The IC50 value was then calculated from the control-subtracted triplicates using non-linear regression (four parameters) of GraphPad Prism 9 software. Final IC50 and SEM values were obtained as a mean of three.

[2] = PAMPA prediction of BBB permeability; assay type: in vitro ADME
Method: The assay validation was performed using standard compounds whose CNS status is experimentally known from in vivo conditions.
PAMPA (the parallel artificial membrane-permeability assay) is a high-throughput screening tool applicable for prediction of the passive transport of potential drugs across the blood–brain barrier (BBB). In this study, it was used as a non-cell-based in vitro assay carried out in a coated 96-well membrane filter. The filter membrane of the donor plate was coated with PBL (Polar Brain Lipid, Avanti, USA) in dodecane (4 µL of 20 mg/mL PBL in dodecane) and the acceptor well was filled with 300 µL of PBS (pH 7.4; VA). The tested compounds were dissolved first in DMSO and subsequently diluted with PBS (pH 7.4) to final concentrations of 50–100 μM in the donor wells. […] About 300 µL of the donor solution was added to the donor wells (VD) and the donor filter plate was carefully put on the acceptor plate so that the coated membrane was “in touch” with both the donor solution and acceptor buffer. In principle, the test compound diffused from the donor well through the lipid membrane (Area = 0.28 cm^2) to the acceptor well. The concentration of the drug in both the donor and acceptor wells were assessed after 3, 4, 5, and 6 h of incubation in quadruplicate using the UV plate reader Spark (Tecan Group Ltd., Männedorf, Switzerland) at the maximum absorption wavelength of each compound. In addition, the solution of the theoretical compound concentration, simulating the equilibrium state established if the membrane were ideally permeable, was prepared and assessed as well.

human AChE (hAChE) = target: T2, human AChE (hAChE) (Homo sapiens, UniProt P22303); test: hAChE inhibition, modified Ellman's method; assay type: biochemical; settings: read-out: % of AChE inhibition
T2 construct: made in house
Method: (§1) N-Methylpropargylamine-quinazolines were tested for their inhibitory potency against human AChE (hAChE) and human BChE (hBChE) enzymes using the modified spectrophotometric method of Ellman et al..
(§2) The human recombinant BChE and AChE were prepared at the Department of Toxicology and Military Pharmacy (Faculty of Military Health Sciences, Hradec Kralove, Czech Republic). 5,5′-dithiobis(2-nitrobenzoic acid) (Ellman’s reagent, DTNB), phosphate buffer (PB, pH 7.4), acetylthiocholine (ATC) and butyrylthiocholine (BTC), were purchased from Sigma-Aldrich, Prague, Czech Republic. For measuring purposes, polystyrene Nunc 96-well microplates with a flat-bottom shape (ThermoFisher Scientific, Waltham, MA, USA) were utilized. All the assays were carried out in 0.1 M KH2PO4/K2HPO4 buffer, pH 7.4. Enzyme solutions were prepared at 2.0 units/mL in 2 mL aliquots. The assay medium consisted of a 0.1 M phosphate buffer (pH 7.4), 0.01 M DTNB, the enzyme, and 0.01 M substrate (ATC/BTC iodide solution). Concentration 1 µM was tested and the % of inhibition was calculated. Tested compounds were pre-incubated for 5 min. The reaction was started by immediate addition of 20 μL of the substrate. […] Each concentration was assayed in triplicate. Software GraphPad Prism 5 (San Diego, CA, USA) was used for the statistical data evaluation.

SH-SY5Y cells = test: dehydrogenase activity, WST-1 test; assay type: cell-based, human; settings: 100 µM, mean ± SD
Method: Next, we tested the effects of the compounds on intracellular dehydrogenase activity and glutathione levels. […] To evaluate the effects of the compounds on cells, we measured total intracellular dehydrogenase activity as a marker of cellular viability and glutathione levels for evaluation of oxidative stress (Table 6).
Dehydrogenase activity was evaluated by WST-1 test (Roche, Munich, Germany). The WST-1 test measures the activity of intra- and extra-mitochondrial dehydrogenases. […] The change of absorbance was measured by spectrophotometer at the wavelength of 440 nm using SPARK microplate reader (Tecan, Austria) while incubated at 37 °C. The dehydrogenase activity was expressed as the percentage of total cellular dehydrogenase activity relative to that in the control cells (control = 100%).

human BChE (hBChE) = target: T3, human BChE (hBChE) (Homo sapiens, UniProt P06276); test: hBChE inhibition, modified Ellman's method; assay type: biochemical; settings: 10^-6 M
T3 construct: made in house
Method: as §1, §2

GluN1/GluN2B receptor = target: T4, GluN1/GluN2B receptor (Homo sapiens, UniProt Q05586+Q13224); test: whole-cell patch-clamp on HEK293 cells expressing GluN1/GluN2B NMDAR; assay type: cell-based; settings: HEK293, 10 µM, −60 mV, ± SEM (n = 5–6), 100% = full inhibition; read-out: Relative inhibition (RI) of GluN1/GluN2B NMDAR
T4 construct: expressed in transfected cells; host or cells: HEK293
Method: We tested the derivatives by the whole-cell patch-clamp method at a concentration of 10 μM under steady-state conditions in the presence of the saturating concentrations of NMDAR (co-)agonists (L-glutamate and glycine). […] Whole-cell patch-clamp recordings were performed using an Axopatch 200B amplifier (Molecular Devices, LLC., San Jose, CA, USA) at a holding membrane potential of −60 mV. HEK293 cells were co-transfected with DNA vectors encoding human versions of the GluN1-4a (GluN1) and GluN2B subunits and green fluorescent protein (GFP) in a 1:1:1 ratio using 0.9 μL PolyMag reagent (OZ Biosciences SAS, Marseille, France) in 50 μL Opti-MEM I [56, 57]. After 15 min on a magnetic plate, HEK293 cells were trypsinized and resuspended in Opti-MEM I medium containing 1% FBS, 2 mM MgCl2 and 3 mM kynurenic acid (to reduce cell death caused by activation of NMDARs). Electrophysiological measurements were performed 24–48 h after completion of transfection at room temperature. The extracellular recording solution (ECS) contained (in mM): 160 NaCl, 2.5 KCl, 10 HEPES, 10 D-glucose, 0.2 EDTA, and 0.7 CaCl2 (pH 7.3 with NaOH). […] A microprocessor-controlled rapid perfusion system with a time constant for solution exchange around the recorded cell of ~20 ms was used. Currents were low-pass filtered at 2 kHz using an eight-pole Bessel filter, digitized at 5 kHz, and recorded using the pCLAMP 10 program (Molecular Devices, LLC., San Jose, CA, USA). The co-agonist glycine (100 µM) was applied throughout the recording, and the agonist L-glutamate (1 mM) was used to elicit responses of GluN1/GluN2B receptors.

T4 sequence (Q13224 27-1484, other chains not shown): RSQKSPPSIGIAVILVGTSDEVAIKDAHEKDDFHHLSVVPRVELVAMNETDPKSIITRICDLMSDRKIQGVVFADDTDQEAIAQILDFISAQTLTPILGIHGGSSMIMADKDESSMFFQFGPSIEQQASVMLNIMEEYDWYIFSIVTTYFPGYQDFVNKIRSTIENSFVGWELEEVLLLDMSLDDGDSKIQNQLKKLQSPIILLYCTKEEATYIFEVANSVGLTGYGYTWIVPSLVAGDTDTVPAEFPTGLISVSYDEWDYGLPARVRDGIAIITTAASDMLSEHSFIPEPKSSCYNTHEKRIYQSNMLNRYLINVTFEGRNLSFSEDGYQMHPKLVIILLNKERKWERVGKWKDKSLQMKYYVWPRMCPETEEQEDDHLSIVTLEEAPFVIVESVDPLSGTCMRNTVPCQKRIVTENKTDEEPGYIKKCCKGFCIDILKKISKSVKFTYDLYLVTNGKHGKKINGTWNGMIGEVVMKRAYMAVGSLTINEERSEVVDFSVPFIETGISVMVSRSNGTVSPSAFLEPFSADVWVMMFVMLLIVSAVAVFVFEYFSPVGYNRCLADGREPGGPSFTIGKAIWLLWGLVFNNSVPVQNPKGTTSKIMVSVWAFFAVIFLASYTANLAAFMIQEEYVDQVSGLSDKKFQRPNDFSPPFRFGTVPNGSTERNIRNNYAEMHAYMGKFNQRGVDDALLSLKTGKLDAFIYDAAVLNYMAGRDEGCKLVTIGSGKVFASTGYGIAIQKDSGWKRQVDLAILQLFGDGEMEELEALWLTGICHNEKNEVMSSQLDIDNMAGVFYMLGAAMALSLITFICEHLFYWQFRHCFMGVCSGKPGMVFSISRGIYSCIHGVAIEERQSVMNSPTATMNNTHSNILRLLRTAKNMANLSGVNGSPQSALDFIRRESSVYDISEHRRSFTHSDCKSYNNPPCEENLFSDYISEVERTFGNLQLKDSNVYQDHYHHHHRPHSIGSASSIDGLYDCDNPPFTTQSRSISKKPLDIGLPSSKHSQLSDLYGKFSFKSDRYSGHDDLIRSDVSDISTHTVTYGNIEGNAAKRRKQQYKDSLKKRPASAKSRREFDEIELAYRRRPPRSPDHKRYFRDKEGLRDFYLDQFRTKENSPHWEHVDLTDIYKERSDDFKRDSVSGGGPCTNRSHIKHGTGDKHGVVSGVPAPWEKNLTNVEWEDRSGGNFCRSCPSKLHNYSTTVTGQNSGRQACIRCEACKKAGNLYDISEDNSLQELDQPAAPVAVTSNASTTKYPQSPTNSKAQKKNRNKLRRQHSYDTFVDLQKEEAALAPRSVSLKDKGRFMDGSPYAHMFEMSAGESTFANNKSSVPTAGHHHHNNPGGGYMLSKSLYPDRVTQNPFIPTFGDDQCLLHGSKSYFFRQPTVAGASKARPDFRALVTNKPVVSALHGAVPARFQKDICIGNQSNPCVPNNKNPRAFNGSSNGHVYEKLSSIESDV
T3 sequence (P06276 29-602): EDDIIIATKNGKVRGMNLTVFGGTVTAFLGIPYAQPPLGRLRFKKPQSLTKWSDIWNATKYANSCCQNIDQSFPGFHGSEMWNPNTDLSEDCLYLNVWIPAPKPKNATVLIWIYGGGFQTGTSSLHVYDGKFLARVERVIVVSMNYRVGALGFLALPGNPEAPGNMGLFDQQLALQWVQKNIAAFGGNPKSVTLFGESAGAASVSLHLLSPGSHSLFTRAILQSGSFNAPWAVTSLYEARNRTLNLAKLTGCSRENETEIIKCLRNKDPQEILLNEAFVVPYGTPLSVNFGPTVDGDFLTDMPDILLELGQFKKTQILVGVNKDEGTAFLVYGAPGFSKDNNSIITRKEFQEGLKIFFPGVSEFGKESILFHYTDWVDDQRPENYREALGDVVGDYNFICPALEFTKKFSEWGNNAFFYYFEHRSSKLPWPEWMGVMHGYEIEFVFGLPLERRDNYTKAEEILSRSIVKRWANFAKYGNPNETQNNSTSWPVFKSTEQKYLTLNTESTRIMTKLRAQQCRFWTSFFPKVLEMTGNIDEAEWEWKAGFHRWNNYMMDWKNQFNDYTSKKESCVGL
T2 sequence (P22303 32-614): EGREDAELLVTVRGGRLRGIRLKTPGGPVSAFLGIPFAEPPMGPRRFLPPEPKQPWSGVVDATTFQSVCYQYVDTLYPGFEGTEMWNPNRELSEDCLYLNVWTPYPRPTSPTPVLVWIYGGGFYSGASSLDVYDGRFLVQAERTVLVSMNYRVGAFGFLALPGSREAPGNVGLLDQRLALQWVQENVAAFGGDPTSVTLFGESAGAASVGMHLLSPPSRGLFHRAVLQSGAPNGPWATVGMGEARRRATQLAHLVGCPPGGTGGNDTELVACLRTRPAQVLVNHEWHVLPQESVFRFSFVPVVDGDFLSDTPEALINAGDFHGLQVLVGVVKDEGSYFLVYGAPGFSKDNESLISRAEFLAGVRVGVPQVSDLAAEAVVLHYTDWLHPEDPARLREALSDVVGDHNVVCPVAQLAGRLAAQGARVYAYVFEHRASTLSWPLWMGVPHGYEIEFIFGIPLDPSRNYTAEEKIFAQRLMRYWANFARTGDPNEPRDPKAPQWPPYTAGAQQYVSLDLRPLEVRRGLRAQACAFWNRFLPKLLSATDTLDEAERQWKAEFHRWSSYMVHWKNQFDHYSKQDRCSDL

## C#CCN(C)c1nc(NCCCC)c2ccc(Cl)cc2n1 [II-6e, N4-butyl-7-chloro-N2-methyl-N2-(prop-2-yn-1-yl)quinazoline-2,4-diamine]
In vitro
  IC50 at 24 h: 67.1 ± 3.81 µM
hMAO-B
  IC50: 3.65 ± 0.14 µM
  selectivity profile hMAO-A vs hMAO-B (in words): hMAO-B selective inhibitors
[1]
  effect on viability of differentiated SH-SY5Y (in words): increased toxicity
[2]
  BBB penetration by PAMPA (in words): did not penetrate the artificial barrier
[2]; PAMPA class
  CNS (+/−): CNS (−) (CNS (−) (low BBB permeation predicted): Pe (×10^−6 cm s^−1) < 2.0)
[2]; PAMPA, PBS pH 7.4, read-out: Pe ± SEM
  Papp: 0.9 ± 0.43 ×10⁻⁶ cm/s
Human AChE (hAChE)
  inhibition at 1 µM: 9%
SH-SY5Y cells; 6 h
  Dehydrogenase Activity (% of Control): 63 ± 9 % of Control
SH-SY5Y cells; 24 h
  Dehydrogenase Activity (% of Control): 48 ± 9 % of Control
Human BChE (hBChE)
  inhibition at 1 µM: 0%
GluN1/GluN2B receptor
  inhibition at 10 µM: 33.8 ± 2.56%

Reference: article PMC10252614 (International Journal of Molecular Sciences, 2023)
